“Also recorded” adds a separate entry of the source.
Experiments:
[1] = tested on: sub-chronic TPA induced mouse ear inflammation; assay: sub-chronic TPA (repeated application) mouse ear inflammation model (Example 112); assay type: in vivo, female BALB/ca mice
Procedure: Investigation of two complexes according to the invention in a recognized pharmacodynamic model of sub-chronic inflammation.
The objective of this study was to assess the therapeutic value of the complexes of the invention in a very demanding pharmacodynamic model of dermal inflammation. Repeated application of TPA to the ears of the mice within 48 hours yields an inflammatory lesion with infiltration of leukocytes and persistent swelling. The reapplication of TPA ([…]) after 48 hours produces an inflammation and ear oedema, which is more dramatic due to the involvement and activation of a vast number of inflammatory cells. Therefore the model is suitable for drug evaluation in relation to more aggravated or chronic inflammatory conditions. The test substance for evaluation is co-applied with the second TPA application. […]
Mean weights and standard deviations were calculated. Relative ear oedema was assessed as the weight difference between right and left ear of each mouse expressed as percent of the left ear. Percent inhibition of the relative ear oedema compared with the vehicle treated groups was calculated for the test substance and positive control treated group. […]

[2] = tested on: 12-O-tetradecanoylphorbol-13-acetate (TPA) induced mouse ear inflammation; assay: acute TPA induced mouse ear inflammation model (Example 111); assay type: in vivo, female BALB/ca mice; settings: vs vehicle
Text: This was done by comparing a high dose, corresponding to Emax (the maximal obtainable effect representing the plateau of the dose-response curve) with the individual effects of the molar amount present of each component of the complex. If the effect of the complex is higher than the sum of the components the effect is synergistic. […] The positive control used in this study was betamethasone 17-valerate applied as a commercial preparation with maximum human dose (Celeston® Cutaneous Solution 0.1%, Shering-Plough).
The test substances were administered 20 minutes before and 20 minutes after application of TPA to the ear.
All groups were treated with 20 μl TPA solution 400 μg/ml in acetone, on the right ear.
Three hours after the TPA application the mice were sacrificed, the ears cut from the tip with a punch biopsy knife (8 mm diameter) and weighed.
Differences in relative ear oedema between the vehicle treated group and the other groups were tested for significance employing a non-parametric statistical method of analysis, the Mann-Whitney U test. The required level of significance was p<0.05.

Trichophyton rubrum = assay: antimicrobial MIC test (Example 113); assay type: cell-based; settings: 1 to 4 days culture; initial test concentration 3 mM in 1% DMSO and dilutions
Procedure: (§1) Test substance or vehicle is added to test wells containing the selected microorganisms (1×10^4 to 5×10^5 CFU/ml)in cultures grown under controlled conditions. The final innoculum concentration is determined by reference to a standard optical density curve and adjusted as required. After 1 to 4 days, growth of the culture is examined and scored positive (+) for inhibition of growth or turbidity, or negative (−) for no effect upon growth or turbidity. An initial test concentration of 3 mM in 1% DMSO is used and dilutions are tested to establish the minimal inhibitory concentration (MIC).

Microsporum canis = assay: antimicrobial MIC test (Example 113); assay type: cell-based; settings: 1 to 4 days culture; initial test concentration 3 mM in 1% DMSO and dilutions
Procedure: as §1

Candida albicans = assay: antimicrobial MIC test (Example 113); assay type: cell-based; settings: 1 to 4 days culture; initial test concentration 3 mM in 1% DMSO and dilutions
Procedure: as §1

Epidermophyton floccosum = assay: antimicrobial MIC test (Example 113); assay type: cell-based; settings: 1 to 4 days culture; initial test concentration 3 mM in 1% DMSO and dilutions
Procedure: as §1

Streptococcus faecalis = assay: antimicrobial MIC test (Example 113); assay type: cell-based; settings: 1 to 4 days culture; initial test concentration 3 mM in 1% DMSO and dilutions
Procedure: as §1

CCCCC(=O)O[C@]1(C(=O)CO)[C@@H](C)C[C@H]2[C@@H]3CCC4=CC(=O)C=C[C@]4(C)[C@@]3(F)[C@@H](O)C[C@@]21C [Betamethasone 17-valerate]
% Inhibition of relative ear oedema ([1]; 0.02 mg/ear, 20 min before and after TPA re-application at 48 h, 3 h after TPA, vs vehicle): 31%
% Inhibition of relative ear oedema ([2]; 0.02 mg/ear (Celeston Cutaneous Solution 0.1%), 20 min before and after TPA, 3 h after TPA): 66%

C[C@]12CCC(=O)C=C1CC[C@@H]1[C@@H]2[C@@H](O)C[C@@]2(C)[C@H]1CC[C@]2(O)C(=O)CO [hydrocortisone]
effect in the sub-chronic TPA model ([1]; observation of the inventor on mild steroids): no effect; also recorded: no measurable effects

CCCCCCCC(=O)OCC(O)CO (racemic) [Rac-1-glyceryl-monocaprylate]
MIC (Trichophyton rubrum): Not active at tested
MIC (Microsporum canis): Not active at tested
MIC (Candida albicans): Not active at tested
MIC (Epidermophyton floccosum): Not active at tested
MIC (Streptococcus faecalis): Not active at tested
% Inhibition of relative ear oedema ([2]; 4.58 μmol/ear, given 20 min before and 20 min after TPA, ears weighed 3 h after TPA): 22%

NC(=O)c1cccnc1 [Niacinamide]
% Inhibition of relative ear oedema ([2]; 64.1 μmol/ear, given 20 min before and 20 min after TPA, ears weighed 3 h after TPA): 18%
